Source: patent publication US20160271263A1 (Novo Nordisk A/S, priority 2010, published 2016)
Numbered stars: 1 amine (or outer) side, 2 acyl side, 3 side chain; on linkers, the order of the positions; unused ones are H or OH. Square brackets hold non-standard residues; d marks the D form. Side chains are listed from the residue outwards. Peptide text beside a SMILES is read from it. * marks the point of attachment. C18 diacid = O=C(O)CCCCCCCCCCCCCCCCC(=O)*; γGlu = O=C(O)[C@H](CCC(=O)[*:2])N[*:1]; AEEA = NCCOCCOCC(=O)O; Aib = CC(C)(N)C(=O)O

Biological target: glucagon receptor (Homo sapiens, UniProt P47871)
Sequence (P47871 26-477): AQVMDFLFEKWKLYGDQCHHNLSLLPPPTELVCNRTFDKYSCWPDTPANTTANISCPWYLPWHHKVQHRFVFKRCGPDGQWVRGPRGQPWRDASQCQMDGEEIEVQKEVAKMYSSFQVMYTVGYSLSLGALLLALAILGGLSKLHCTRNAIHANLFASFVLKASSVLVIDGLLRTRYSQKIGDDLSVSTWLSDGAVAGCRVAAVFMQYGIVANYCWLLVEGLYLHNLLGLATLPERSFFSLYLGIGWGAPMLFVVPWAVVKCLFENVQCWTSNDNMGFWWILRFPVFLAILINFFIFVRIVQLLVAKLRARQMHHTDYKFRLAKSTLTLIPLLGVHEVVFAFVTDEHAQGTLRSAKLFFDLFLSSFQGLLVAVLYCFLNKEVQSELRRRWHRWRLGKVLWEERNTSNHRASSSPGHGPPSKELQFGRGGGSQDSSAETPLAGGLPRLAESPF
Assay: cell-based

EC50	Structure (SMILES)
0.127 nM	CC(C)C[C@H](NC(=O)[C@H](Cc1ccc(O)cc1)NC(=O)[C@H](CCCNC(=N)N)NC(=O)[C@H](CO)NC(=O)[C@H](Cc1ccc(O)cc1)NC(=O)[C@H](CC(=O)O)NC(=O)[C@H](CO)NC(=O)[C@@H](NC(=O)[C@H](Cc1ccccc1)NC(=O)[C@@H](NC(=O)CNC(=O)[C@H](CCC(N)=O)NC(=O)[C@H](CO)NC(=O)[C@@H](N)Cc1c[nH]cn1)[C@@H](C)O)[C@@H](C)O)C(=O)N[C@@H](CC(=O)O)C(=O)N[C@@H](CO)C(=O)N[C@@H](CCCNC(=N)N)C(=O)N[C@@H](CCCNC(=N)N)C(=O)N[C@@H](C)C(=O)N[C@@H](CCC(N)=O)C(=O)N[C@@H](CC(=O)O)C(=O)N[C@@H](Cc1ccccc1)C(=O)N[C@H](C(=O)N[C@@H](CCCCNC(=O)CC[C@H](NC(=O)CC[C@H](NC(=O)COCCOCCNC(=O)COCCOCCNC(=O)CC[C@H](NC(=O)CCCCCCCCCCCCCCCCC(=O)O)C(=O)O)C(=O)O)C(=O)O)C(=O)N[C@@H](Cc1c[nH]c2ccccc12)C(=O)N[C@@H](CC(C)C)C(=O)N[C@@H](CC(C)C)C(=O)N[C@@H](CC(N)=O)C(=O)N[C@H](C(=O)O)[C@@H](C)O)C(C)C [Example 72, N^ε24-[(4S)-4-carboxy-4-[[(4S)-4-carboxy-4-[[2-[2-[2-[[2-[2-[2-[[(4S)-4-carboxy-4-(17-carboxyheptadecanoylamino)butanoyl]amino]ethoxy]ethoxy]acetyl]amino]ethoxy]ethoxy]acetyl]amino]butanoyl]amino]butanoyl]-[Arg^12,Lys^24,Leu^27]-Glucagon] (H-HSQGTFTSDYSRYLDSRRAQDFVK([γGlu-γGlu-AEEA-AEEA-γGlu-C18 diacid])WLLNT-OH; N-terminus and C-terminus assumed)
0.024 nM	CC(C)C[C@H](NC(=O)[C@H](Cc1ccc(O)cc1)NC(=O)[C@H](CCCCN)NC(=O)[C@H](CO)NC(=O)[C@H](Cc1ccc(O)cc1)NC(=O)[C@H](CC(=O)O)NC(=O)[C@H](CO)NC(=O)[C@@H](NC(=O)[C@H](Cc1ccccc1)NC(=O)[C@@H](NC(=O)CNC(=O)[C@H](CCC(N)=O)NC(=O)[C@H](CO)NC(=O)[C@@H](N)Cc1c[nH]cn1)[C@@H](C)O)[C@@H](C)O)C(=O)N[C@@H](CC(=O)O)C(=O)N[C@@H](CO)C(=O)N[C@@H](CCCNC(=N)N)C(=O)N[C@@H](CCCNC(=N)N)C(=O)N[C@@H](C)C(=O)N[C@@H](CCC(N)=O)C(=O)N[C@@H](CC(=O)O)C(=O)N[C@@H](Cc1ccccc1)C(=O)N[C@H](C(=O)N[C@@H](CCCCNC(=O)COCCOCCNC(=O)COCCOCCNC(=O)CC[C@H](NC(=O)CCCCCCCCCCCCCCCCC(=O)O)C(=O)O)C(=O)N[C@@H](Cc1c[nH]c2ccccc12)C(=O)N[C@@H](CC(C)C)C(=O)N[C@@H](CC(C)C)C(=O)N[C@H](C(=O)N[C@H](C(=O)O)[C@@H](C)O)[C@@H](C)O)C(C)C [Example 15]
0.135 nM	CC(C)C[C@H](NC(=O)[C@H](Cc1ccc(O)cc1)NC(=O)[C@H](CCCCN)NC(=O)[C@H](CO)NC(=O)[C@H](Cc1ccc(O)cc1)NC(=O)[C@H](CC(=O)O)NC(=O)[C@H](CO)NC(=O)[C@@H](NC(=O)[C@H](Cc1ccccc1)NC(=O)[C@@H](NC(=O)CNC(=O)[C@H](CCC(N)=O)NC(=O)C(C)(C)NC(=O)[C@@H](N)Cc1c[nH]cn1)[C@@H](C)O)[C@@H](C)O)C(=O)N[C@@H](CC(=O)O)C(=O)N[C@@H](CCC(=O)O)C(=O)N[C@@H](CCCNC(=N)N)C(=O)N[C@@H](CCCNC(=N)N)C(=O)N[C@@H](C)C(=O)N[C@@H](CCC(N)=O)C(=O)N[C@@H](CC(=O)O)C(=O)N[C@@H](Cc1ccccc1)C(=O)N[C@H](C(=O)N[C@@H](CCCCNC(=O)COCCOCCNC(=O)COCCOCCNC(=O)CC[C@H](NC(=O)CCCCCCCCCCCCCCCCC(=O)O)C(=O)O)C(=O)N[C@@H](Cc1c[nH]c2ccccc12)C(=O)N[C@@H](CC(C)C)C(=O)N[C@@H](CC(C)C)C(=O)N[C@@H](CC(N)=O)C(=O)N[C@H](C(N)=O)[C@@H](C)O)C(C)C [Example 29, N^ε24-([2-[2-[2-[[2-[2-[2-[[(4S)-5-hydroxy-4-[(18-hydroxy-18-oxooctadecanoyl)amino]-5-oxopentanoyl]amino]ethoxy]ethoxy]acetyl]amino]ethoxy]ethoxy]acetyl]) [Aib^2,Glu^16,Lys^24,Leu^27]Glucagon peptide amide] (H-H[Aib]QGTFTSDYSKYLDERRAQDFVK([AEEA-AEEA-γGlu-C18 diacid])WLLNT-NH2; N-terminus assumed)
0.155 nM	CC(C)C[C@H](NC(=O)[C@H](Cc1ccc(O)cc1)NC(=O)[C@H](CCCCN)NC(=O)[C@H](CO)NC(=O)[C@H](Cc1ccc(O)cc1)NC(=O)[C@H](CC(=O)O)NC(=O)[C@H](CO)NC(=O)[C@@H](NC(=O)[C@H](Cc1ccccc1)NC(=O)[C@@H](NC(=O)CNC(=O)[C@H](CCC(N)=O)NC(=O)[C@H](CO)NC(=O)[C@@H](N)Cc1c[nH]cn1)[C@@H](C)O)[C@@H](C)O)C(=O)N[C@@H](CC(=O)O)C(=O)N[C@@H](CO)C(=O)N[C@@H](CCCNC(=N)N)C(=O)N[C@@H](CCCNC(=N)N)C(=O)N[C@@H](C)C(=O)N[C@@H](CCC(N)=O)C(=O)N[C@@H](CC(=O)O)C(=O)N[C@@H](Cc1ccccc1)C(=O)N[C@H](C(=O)N[C@@H](CCC(N)=O)C(=O)N[C@@H](CCCCNC(=O)COCCOCCNC(=O)COCCOCCNC(=O)CC[C@H](NC(=O)CCCCCCCCCCCCCCCCC(=O)O)C(=O)O)C(=O)N[C@@H](CC(C)C)C(=O)N[C@@H](CC(C)C)C(=O)N[C@@H](CC(N)=O)C(=O)N[C@H](C(=O)O)[C@@H](C)O)C(C)C [Example 7]
0.009 nM	CC(C)C[C@H](NC(=O)[C@H](Cc1ccc(O)cc1)NC(=O)[C@H](CCCCN)NC(=O)[C@H](CO)NC(=O)[C@H](Cc1ccc(O)cc1)NC(=O)[C@H](CC(=O)O)NC(=O)[C@H](CO)NC(=O)[C@@H](NC(=O)[C@H](Cc1ccccc1)NC(=O)[C@@H](NC(=O)CNC(=O)[C@H](CCC(N)=O)NC(=O)[C@H](CO)NC(=O)[C@@H](N)Cc1c[nH]cn1)[C@@H](C)O)[C@@H](C)O)C(=O)N[C@@H](CC(=O)O)C(=O)N[C@@H](CO)C(=O)N[C@@H](CCCCN)C(=O)N[C@@H](CCCCN)C(=O)N[C@@H](C)C(=O)N[C@@H](CCC(N)=O)C(=O)N[C@@H](CCC(=O)O)C(=O)N[C@@H](Cc1ccccc1)C(=O)N[C@H](C(=O)N[C@@H](CCCCNC(=O)COCCOCCNC(=O)COCCOCCNC(=O)CC[C@H](NC(=O)CCCCCCCCCCCCCCCCC(=O)O)C(=O)O)C(=O)N[C@@H](Cc1c[nH]c2ccccc12)C(=O)N[C@@H](CC(C)C)C(=O)N[C@@H](CC(C)C)C(=O)N[C@@H](CO)C(=O)N[C@H](C(=O)O)[C@@H](C)O)C(C)C [Example 55, N^ε24-([2-[2-[2-[[2-[2-[2-[[(4S)-5-hydroxy-4-[(18-hydroxy-18-oxooctadecanoyl)amino]-5-oxopentanoyl]amino]ethoxy]ethoxy]acetyl]amino]ethoxy]ethoxy]acetyl]) [Lys^17,Lys^18,Glu^21,Lys^24,Leu^27, Ser^28] Glucagon] (H-HSQGTFTSDYSKYLDSKKAQEFVK([AEEA-AEEA-γGlu-C18 diacid])WLLST-OH; N-terminus and C-terminus assumed)
